US10618898B2, “Hydroxyl purine compounds and use thereof” (GUANGDONG RAYNOVENT BIOTECH CO., LTD., priority 2015, dated 2020)

system: TNF-α; assay: In vitro induction of TNF-α in rat blood by LPS (ELISA); type: cell-based; conditions: test compound final concentration 100 μM, 5 hours, read-out: Rate of TNFα inhibition
Method: Experiment Objective: Determining the impact of the compounds on induction of TNF-α in rat blood by LPS in vitro, and evaluating the effect of the compounds on inhibiting induction of TNF-α in rat blood by LPS.
Sprague Dawley rats (male, 210-260 g, 8-10 weeks old, Shanghai SLAC)
Rat TNF-alpha Quantikine ELISA Kit (R&D, # SRTA00)
The test compound solutions were prepared at a concentration of 1 mM. 40 μl of each of the solutions was added into a 48-well cell culture plate (at the final concentration of 100 μM). After the rat was anesthetized with isoflurane, the blood was collected from the heart (heparin for anticoagulation). The blood was added into the 48-well plate containing the test compound, in the amount of 320 μL per well. The 48-well plate was placed into a cell incubator, and then taken out after 30 minutes of incubation. Then, 40 μL of LPS solution (100 μg/ml) was added and mixed. The 48-well plate was placed into the incubator for further incubation. After 5 hours, the 48-well plate was taken out and the blood sample was transferred to a 1.5 mL centrifuge tube, followed by centrifugation in a centrifuge (4,500 rpm, 4° C., 5 minutes). The supernatant was separated and the plasma was obtained. […] In the next day, the TNF-α level of the plasma samples was determined by using the R&D ELISA kit in accordance with the instructions.

| SMILES | inhibition at 100 µM [%] |
| --- | --- |
| Cn1cnc2c1c(=O)n(CC1(C)COC1)c(=O)n2C [Example 3, 3,7-Dimethyl-1-((3-methyloxetan-3-yl)methyl)-1H-purin-2,6(3H, 7H)-dione] | 60 to 80 |
| Cn1cnc2c1c(=O)n(CCN1CCOCC1)c(=O)n2C [Example 17, 3,7-Dimethyl-1-(2-morpholinoethyl)-purin-2,6-dione] | < 60 |

target: T1, Recombinant full-length human PDE2A protein (Homo sapiens, UniProt O00408); assay: In vitro PDE2 phosphodiesterase inhibitory activity (fluorescence polarization, Transcreener AMP2/GMP2); type: biochemical; conditions: not given
T1 construct: Recombinant full-length human PDE2A protein; GST (N); host or cells: insect Sf9 cells (baculovirus)
Method: Experiment Objective: Determining the concentration of AMP/GMP produced in the reaction system by way of detecting the AlexaFluor 633 fluorescent dye substituted on AMP/GMP antibody by fluorescence polarization assay, and thereby to calculate the IC50 value of PDE2 phosphodiesterase inhibition by the test compound. Experimental Materials: Detecting buffer solution: 10 mM Tris-HCl, pH 7.5, 5 mM MgCl2, 0.01% Brij 35, 1 mM DTT, and 1% DMSO. Enzyme: Recombinant full-length human PDE2A protein with an N-terminal GST-tag expressed in insect Sf9 cells by baculovirus Substrate: 1 μM cGMP Detection System: Transcreener® AMP^2/GMP^2 antibody, AMP2/GMP2 AlexaFluor 633 fluorescent dye Experimental Operation:
The enzyme solution was prepared by using the freshly prepared buffer solution, and then was added into the reaction wells. The DMSO solution of the test compound was added via Echo550, a nanoliter-scale contactless acoustic liquid transferring system, and then pre-incubated at room temperature for 10 minutes. The substrate (1 μLM cGMP) was added to initiate the reaction at room temperature for one hour. The detection system (Transcreener® AMP^2/GMP^2 antibody, AMP2/GMP2 AlexaFluor 633 fluorescent dye) was then added, and the reaction was conducted at room temperature for 90 minutes. Fluorescence polarization was then detected by using Ex/Em 620/688.
The intensity of fluorescence polarization was converted to nM concentration by the AMP/GMP standard curve, and then calculate the relative enzyme activity inhibition relative to the DMSO blank. The IC50 values and curves were calculated by using the Prism software package (GraphPad Software, San Diego Calif., USA)

T1 sequence (O00408 whole entry): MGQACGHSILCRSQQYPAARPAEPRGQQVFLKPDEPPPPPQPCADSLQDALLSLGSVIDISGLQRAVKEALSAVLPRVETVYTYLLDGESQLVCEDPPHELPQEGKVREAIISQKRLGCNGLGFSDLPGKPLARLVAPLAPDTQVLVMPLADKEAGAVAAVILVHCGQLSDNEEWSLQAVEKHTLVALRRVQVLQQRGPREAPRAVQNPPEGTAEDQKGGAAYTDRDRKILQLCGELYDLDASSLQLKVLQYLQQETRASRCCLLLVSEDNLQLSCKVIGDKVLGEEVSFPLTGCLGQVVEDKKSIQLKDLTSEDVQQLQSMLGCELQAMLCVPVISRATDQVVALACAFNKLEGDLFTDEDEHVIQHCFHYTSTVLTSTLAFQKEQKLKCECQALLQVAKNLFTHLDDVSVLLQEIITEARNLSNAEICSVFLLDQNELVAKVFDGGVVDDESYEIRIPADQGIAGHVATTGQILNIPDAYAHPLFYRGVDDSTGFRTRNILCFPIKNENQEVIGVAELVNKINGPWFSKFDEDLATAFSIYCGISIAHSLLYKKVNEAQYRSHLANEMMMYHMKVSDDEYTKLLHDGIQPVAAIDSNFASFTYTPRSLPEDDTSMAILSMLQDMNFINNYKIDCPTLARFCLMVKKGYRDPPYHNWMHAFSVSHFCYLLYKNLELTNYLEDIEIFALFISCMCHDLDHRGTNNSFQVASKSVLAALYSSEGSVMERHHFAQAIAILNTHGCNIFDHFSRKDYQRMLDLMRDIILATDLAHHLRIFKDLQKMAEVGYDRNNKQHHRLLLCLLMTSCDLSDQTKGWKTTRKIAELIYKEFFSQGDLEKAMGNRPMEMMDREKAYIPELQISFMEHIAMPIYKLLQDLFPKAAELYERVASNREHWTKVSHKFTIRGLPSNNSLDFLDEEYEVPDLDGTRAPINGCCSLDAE

| SMILES | IC50 [µM] |
| --- | --- |
| Cn1cnc2c1c(=O)n(CC1(C)COC1)c(=O)n2C [Example 3, 3,7-Dimethyl-1-((3-methyloxetan-3-yl)methyl)-1H-purin-2,6(3H, 7H)-dione] | 10 to 50 |

same assay, conditions: human PDE2A, substrate 1 μM cGMP, fluorescence polarization; read-out: PDE2 phosphodiesterase inhibitory activity

| SMILES | IC50 [µM] |
| --- | --- |
| CCC1(Cn2c(=O)c3c(ncn3C)n(C)c2=O)CCOCC1 [Example 12 Isomer 1, 1-((4-Ethyltetrahydro-2H-pyran-4-yl)methyl)-3,7-dimethyl-1H-purin-2,6-(3H,7H)-dione] | 10 to 50 |
| Cn1c(=O)n(CC2(C)COC2)c(=O)c2c1cnn2CC1CC1 [Example 33, 1-(Cyclopropylmethyl)-4-methyl-6-((3-methyloxetan-3-yl)methyl)-pyrazolo[4,3-d]pyrimidin-5,7-dione] | 10 to 50 |
| COC1CCC(Cn2c(=O)c3c(ncn3C)n(C)c2=O)CC1 (centres unmarked) [Example 18, 1((-4-Methoxycyclohexyl)methyl)-3,7-dimethyl-1H-purin-2,6-(3H,7H)-dione] | 10 to 50 |
| Cn1cnc2c1c(=O)n(CC1(C)CCOCC1)c(=O)n2C [Example 11 Isomer 1, 3,7-Dimethyl-1-((4-methyltetrahydro-2H-pyran-4-yl)methyl)-1H-purin-2,6-(3H,7H)-dione] | 10 to 50 |
| CCC1(CCn2c(=O)c3c(ncn3C)n(C)c2=O)CCOC1 (single isomer, unassigned) [Example 12 Isomer 2, 1-(2-(3-Ethyltetrahydro-furan-3-yl)ethyl)-3,7-dimethyl-1H-purin-2,6-(3H,7H)-dione] | 10 to 50 |

The remaining lines, values ahead:

| IC50 [µM] | SMILES |
| --- | --- |
| 10 to 50 | CCC1(Cn2c(=O)c3c(ncn3C)n(C)c2=O)COC1 [Example 4, 1-((3-Ethyloxetan-3-yl)methyl)3,7-dimethyl-1H-purin-2,6(3H,7H)-dione] |
| 10 to 50 | CC(C)Cn1cnc2c1c(=O)n(CCC1C[C@@H](C)O[C@H](C)C1)c(=O)n2C (stereo partly drawn) [Example 26, 1-(2-((2R,6R)-2,6-dimethyltetrahydro-2H-pyran-4-yl)ethyl)-7-isobutyl-3-methyl-1H-purin-2,6(3H, 7H)-dione] |
| 10 to 50 | CCC1COCCC1CCn1c(=O)c2c(ncn2C)n(C)c1=O (centres unmarked) [Example 15, 1-(2-(3-Ethyltetrahydro-2H-pyran-4-yl)ethyl)-3,7-dimethyl-1H-purin-2,6-(3H,7H)-dione] |
| 10 to 50 | CCC1CC(CCn2c(=O)c3c(ncn3C)n(C)c2=O)CCO1 (centres unmarked) [Example 16] |
| 10 to 50 | C[C@H]1CC(CCn2c(=O)c3c(ncn3C)n(C)c2=O)C[C@H](C)O1 (stereo partly drawn) [Example 14, 1-[2-((2S,6S)-2,6-dimethyltetrahydro-2H-pyran-4-yl)-ethyl]-3,7-dimethyl-1H-2,6(3H,7H)-dione] |
| 10 to 50 | CCC1OCC1CCn1c(=O)c2c(ncn2C)n(C)c1=O (centres unmarked) [Example 5, 1-(2-(2-Ethyloxetan-3-yl)ethyl)-3,7-dimethyl-1H-purin-2,6(3H,7H)-dione] |
| 10 to 50 | CC(C)n1cnc2c1c(=O)n(CCC1C[C@@H](C)O[C@H](C)C1)c(=O)n2C (stereo partly drawn) [Example 21, 1-(2-((2R,6R)-2,6-dimethyltetrahydro-2H-pyran-4-yl)ethyl)yl-7-isopropyl-3-methyl-1H-purin-2,6(3H,7H)-dione] |
| 10 to 50 | C[C@@H]1CC(CCn2c(=O)c3c(ncn3CC(F)(F)F)n(C)c2=O)C[C@@H](C)O1 (stereo partly drawn) [Example 20, 1-(2-((2R,6R)-2,6-dimethyltetrahydro-2H-pyran-4-yl)ethyl)-3-methyl-7-(2,2,2-trifluoroethyl)-1H-purin-2,6 (3H,7H)-dione] |
| 10 to 50 | C[C@@H]1CC(CCn2c(=O)c3c(ncn3CC3CC3)n(C)c2=O)C[C@@H](C)O1 (some centres unmarked) [Example 23] |
